This note sets out measurements from ChEMBL document CHEMBL5030512 (J Med Chem, 2021).

For orientation: IC50 means the concentration at which inhibition is half-maximal. For orientation: pKa means the pH at which an ionisable group is half protonated. One may read the half-life as how long it takes for the measured level to halve. As usually defined, the Tmax is the time at which the peak concentration occurs.

The test system of data set [1] is HT-29. In words: Cytotoxicity against human HT-29 cells assessed as reduction in cell viability measured after 48 hrs in presence of 5-FU by SRB assay. The class given is functional, cell-based. Conditions: HT-29, 48 h. In general terms: In SRB staining, fixed cells bind dye roughly in proportion to their protein.
The subject of data set [2] is HT-29. In words: Cytotoxicity against human HT-29 cells assessed as reduction in cell viability measured after 48 hrs by SRB assay. The format is functional, cell-based. Conditions: HT-29, 48 h.
The test system of data set [3] is HCT-116. In words: Cytotoxicity against human HCT-116 cells assessed as reduction in cell viability treated with 5 mM GSH measured after 48 hrs in presence of 5-FU by SRB assay. Conditions: HCT-116, 48 h. The format is functional, cell-based.
The test system of data set [4] is HT-29. In words: Cytotoxicity against human HT-29 cells assessed as reduction in cell viability measured after 48 hrs in presence of 5 mM GSH by SRB assay. The class given is functional, cell-based. Conditions: HT-29, 48 h.
Data set [5] has as its system HCT-116. The data set is described as follows: Cytotoxicity against human HCT-116 cells assessed as reduction in cell viability measured after 48 hrs in presence of 5-FU by SRB assay. The class given is functional, cell-based. The following applies: HCT-116, 48 h.
The subject of data set [6] is HT-29. In words: Cytotoxicity against human HT-29 cells assessed as reduction in cell viability treated with 5 mM GSH measured after 48 hrs in presence of 5-FU by SRB assay. The following applies: HT-29, 48 h. The format is functional, cell-based.
The subject of data set [7] is COS-7. The data set is described as follows: Inhibition of GLUT1 in African green monkey COS-7 cells assessed as reduction in 2-NBDG uptake at 50 to 100 uM incubated for 90 mins by fluorescence microplate reader analysis. The format is cell-based. Conditions: Chlorocebus aethiops, dose 50-100 µM.
In data set [8] the test system is Colon cancer cell line. In words: Synergistic antitumour activity against human colorectal cancer cells xenografted in BALB/c mouse assessed as reduction in tumour size at 30 mg/kg, ip administered once every 3 days for 3 weeks in presence of 10 mg/kg 5-FU. The class given is functional, organism-based.
The test system of data set [9] is HCT-116. The data set is described as follows: Cytotoxicity against human HCT-116 cells assessed as reduction in cell viability measured after 48 hrs in presence of 5 mM GSH by SRB assay. The format is functional, cell-based. The following applies: HCT-116, 48 h.
Data set [10] concerns HCT-116. The data set is described as follows: Cytotoxicity against human HCT-116 cells assessed as reduction in cell viability measured after 48 hrs by SRB assay. The class given is functional, cell-based. The following applies: HCT-116, 48 h.
The nature of data set [11]: Dissociation constant, pKa of compound. The class given is physicochemical.
Data set [12] in a line: Stability in human plasma assessed as half life measured upto 48 hrs by RP-HPLC analysis. The format is ADME, cell-free.
Data set [13] can be described thus: Biodistribution in BALB/c mouse heart at 50 mg/kg, ip measured after 1 hr. The format is ADME, organism-based. The following applies: in vivo.
Data set [14] can be described thus: Drug uptake in BALB/c mouse blood at 50 mg/kg, iv measured after 4 hrs by UPLC-MS/MS method. The class given is ADME, organism-based. Conditions: in vivo.
Data set [15] is described as follows: Toxicity in BALB/c mouse xenografted with human colorectal cancer cells assessed as reduction in body weight at 50 mg/kg, ip administered once every 3 days for 3 weeks. Further details: scale not given: the % may be the effect or the level left. The following applies: in vivo, 504 h. The class given is organism-based. For orientation: In xenograft studies the graft and the host belong to different species.

In data set [16] the test system is Colon cancer cell line. In words: Antitumour activity against human colorectal cancer cells xenografted in BALB/c mouse assessed as tumour suppression at 50 mg/kg, ip administered once every 3 days for 3 weeks. The class given is functional, organism-based.
Data set [17] can be described thus: Drug metabolism in 5 mM GSH assessed as 5-FU release after 48 hrs. The class given is ADME.
In data set [18] the test system is NHDF. In words: Cytotoxicity against NHDF assessed as reduction in cell viability measured after 48 hrs by SRB assay. The class given is cell-based. Conditions: Homo sapiens.
A short description of data set [19]: Biodistribution in BALB/c mouse liver at 50 mg/kg, ip measured after 1 hr. The format is ADME, organism-based. Conditions: in vivo.
Data set [20] in a line: Drug uptake in BALB/c mouse blood at 50 mg/kg, iv measured after 30 mins by UPLC-MS/MS method. The format is ADME, organism-based. Conditions: in vivo, 0.5 h.
Data set [21] in a line: Biodistribution in BALB/c mouse colon assessed as 5-FU release at 50 mg/kg, ip measured after 1 hr. The class given is ADME, organism-based. The following applies: in vivo.
Data set [22] is described as follows: Drug uptake in BALB/c mouse blood at 50 mg/kg, iv measured after 45 mins by UPLC-MS/MS method. The class given is ADME, organism-based. The following applies: in vivo, 0.75 h.
The nature of data set [23]: Biodistribution in BALB/c mouse stomach assessed as 5-FU release at 50 mg/kg, ip measured after 1 hr. The class given is ADME, organism-based. The following applies: in vivo.
Data set [24] in a line: Drug metabolism in BALB/c mouse assessed as release of 5-FU in blood at 50 mg/kg, iv measured after 2 hrs by UPLC-MS/MS analysis. The format is ADME, organism-based. The following applies: in vivo.
The nature of data set [25]: Biodistribution in BALB/c mouse stomach at 50 mg/kg, ip measured after 1 hr. The format is ADME, organism-based. The following applies: in vivo.
Data set [26] can be described thus: Half life of the compound in 5 mM GSH. The format is physicochemical.
Data set [27] is described as follows: Biodistribution in BALB/c mouse colon at 50 mg/kg, ip measured after 1 hr. Conditions: in vivo. The class given is ADME, organism-based.
A short description of data set [28]: Tmax in BALB/c mouse at 50 mg/kg, ip by LC-MS/MS analysis. The class given is ADME, organism-based. The following applies: in vivo.
A short description of data set [29]: Biodistribution in BALB/c mouse kidney assessed as 5-FU release at 50 mg/kg, ip measured after 1 hr. Conditions: in vivo. The class given is ADME, organism-based.
A short description of data set [30]: Drug degradation in 5 uM GSH after 48 hrs. The format is ADME. Conditions: read-out: Drug degradation.
The nature of data set [31]: Biodistribution in BALB/c mouse kidney at 9.5 mg/kg, ip measured after 1 hr. The class given is ADME, organism-based. Conditions: in vivo.
Data set [32] can be described thus: Biodistribution in BALB/c mouse spleen at 9.5 mg/kg, ip measured after 1 hr. The format is ADME, organism-based. Conditions: in vivo.
Data set [33] can be described thus: Biodistribution in BALB/c mouse stomach at 9.5 mg/kg, ip measured after 1 hr. The format is ADME, organism-based. Conditions: in vivo.
Data set [34] can be described thus: Stability of compound at pH >= 7. The class given is physicochemical.
A short description of data set [35]: Stability of compound at pH 4 to 5. The class given is physicochemical. The following applies: buffer.

Active and inactive are the calls of the source. The calls are words filed in the database; no cut-off is given here.

Take `O=C(CCc1ccc(O)cc1)c1c(O)cc(OCCOCCOCCS)cc1O`: the IC50 was 10.3 µM in data set [1]; 29.1 µM in [2]; 8.73 µM in data set [3]; 24.2 µM in data set [4]; 10.4 µM in data set [5]; 3.03 µM in data set [6]. For the same compound, the IC50 was determined as 15.9 µM in [9] and 15.5 µM in data set [10]. Moreover, the inhibition entry in data set [7] is “inactive”. Also, the outcome in data set [8] was Active.

As for `O=C(CCCc1cn(CCOCCOCCOc2cc(O)c(C(=O)CCc3ccc(O)cc3)c(O[C@@H]3O[C@H](CO)[C@@H](O)[C@H](O)[C@H]3O)c2)nn1)OCn1cc(F)c(=O)[nH]c1=O`, the IC50 in [2] and in data set [10] was greater than 100 µM each time.

As to `O=C(CCCCCN1C(=O)CC(SCCOCCOCCOc2cc(O)c(C(=O)CCc3ccc(O)cc3)c(O[C@@H]3O[C@H](CO)[C@@H](O)[C@H](O)[C@H]3O)c2)C1=O)OCn1cc(F)c(=O)[nH]c1=O` (some centres not stated), the IC50 was greater than 100 µM in data set [2], 93.6 µM in data set [4], greater than 100 µM in data set [9] and 97.4 µM in data set [10].

As for `O=C(CCc1ccc(O)cc1)c1c(O)cc(O)cc1O[C@@H]1O[C@H](CO)[C@@H](O)[C@H](O)[C@H]1O`, the inhibition entry in data set [7] was “inactive”.

Regarding `O=C(CCCCCN1C(=O)CC(SCCOCCOCCOc2cc(O)c(C(=O)CCc3ccc(O)cc3)c(O)c2)C1=O)OCn1cc(F)c(=O)[nH]c1=O` (configuration not stated), the IC50 in data set [2] turned out to be 43.7 µM; in [4] it was 86.9 µM; in data set [9], 82.8 µM; in data set [10], 75 µM. Besides, in data set [11], the pKa was determined as 8.5. Moreover, in [12], the half-life was 0.8 h.

For `O=C(CCCSSCCOCCOCCOc1cc(O)c(C(=O)CCc2ccc(O)cc2)c(O)c1)OCn1cc(F)c(=O)[nH]c1=O`, the Drug uptake result in data set [13] was “Active”; in data set [14] it was “Active”; in [19], “Active”; in [20], “Not Active”; in data set [21], “Active”; in data set [22], “Active”. The Drug uptake result in data set [23], in data set [25], in [27] and in [29] was “Active” in each case. The Activity entry in data set [15] is listed as “Non-Toxic”. Also, the result in data set [16] was Active. Also, the IC50 worked out at 19.6 µM in [2]; 90 µM in [18]; 3.8 µM in [4]; 10.5 µM in data set [9]; 21.2 µM in data set [10]. Further, the Drug metabolism entry in [17] is “Dose-Dependent Effect”; in data set [24], “Metabolite_Detected”. For the same compound, the t1/2 in data set [26] was 4 h. Moreover, the Tmax in data set [28] was 0.75 h. For the same compound, in [12], the half-life was 13 h. The degraded at 48 h in [30] came to 30%.

With `O=c1[nH]cc(F)c(=O)[nH]1` [FLUOROURACIL], the Drug uptake result in [31], in data set [32], in data set [33] and in data set [25] was “Active” throughout. Moreover, the Activity in data set [15] was 10%. For the same compound, the outcome in [16] was Active. Moreover, the IC50 in data set [18] turned out to be 70.4 µM.

`O=C(CCc1ccc(O)cc1)c1c(O)cc(OCCOCCOCCS)cc1O[C@@H]1O[C@H](CO)[C@@H](O)[C@H](O)[C@H]1O`: the IC50 in data set [1] is 21 µM; in data set [2] it was greater than 100 µM; in data set [3] it was 13.6 µM; in [4], greater than 100 µM; in [5], 21.9 µM; in data set [6], 8.58 µM. Also, the IC50 in data set [9] and in data set [10] was greater than 100 µM in each case. The inhibition result in [7] is “inactive”.

On to `O=C(CCCc1cn(CCOCCOCCOc2cc(O)c(C(=O)CCc3ccc(O)cc3)c(O)c2)nn1)OCn1cc(F)c(=O)[nH]c1=O`, for which the IC50 was 85 µM in [2] and greater than 100 µM in [10]. The Stability result in data set [34] is recorded as “Unstable”; in data set [35] it was “Stable”. In [11], this compound had a pKa of 8.5. Besides, the half-life in [12] was 3.6 h.

For `O=C(CCCSSCCOCCOCCOc1cc(O)c(C(=O)CCc2ccc(O)cc2)c(O[C@@H]2O[C@H](CO)[C@@H](O)[C@H](O)[C@H]2O)c1)OCn1cc(F)c(=O)[nH]c1=O`, the IC50 in [2] came out at 59.8 µM; in data set [4], 8 µM; in data set [9] it was 23.8 µM; in [10], 54.9 µM.
